How the values were obtained:
[1] = test system: genes involved in hepatic thyroid hormone conjugation and transport; test: RTQ-PCR of thyroid hormone metabolism genes in liver of TCPOBOP-treated mice; type: in vivo, mouse; conditions: 1 mg/kg i.p.
[2] = test system: mouse sulfotransferase genes; test: Northern blot analysis of sulfotransferase mRNAs in liver of TCPOBOP-treated mice; type: in vivo; conditions: 1 mg/kg i.p.
T4 = conditions: rats; TCPOBOP at high doses; cited from earlier work
[3] = test system: mouse sulfotransferase genes; test: Effect of TCPOBOP on expression of the known mouse sulfotransferase genes (method not specified); type: in vivo; conditions: mice, liver
Procedure: (§1) In these experiments, three mice were treated with 1 mg/kg TCPOBOP in 5% dimethyl sulfoxide (DMSO) and corn oil, intraperitoneally. Control mice (n—3) received vehicle alone. Each mouse received two injections at 24 hour intervals. Livers were harvested after the second injection. Thus, total treatment time was 28 hours. Total mRNA was isolated from the livers using the Trizol method and probes for hybridization to the Affymetrix chips were prepared from the total mRNA. Results were analyzed by Affymetrix microarray Suite version 4.0 software.
Since sulfotransferase activity is important in thyroid metabolism, the effect of TCPOBOP on expression of all of the known mouse sulfotransferase genes was examined. The sulfotransferase set examined included N-SULT, SULT-X1, SULT-X2, aryl sulfotransferase, phenyl sulfotransferase, hydroxysteroid sulfotransferase, SULT-B1, and SUTL1E1. Three of these eight sulfotransferase genes were induced by TCPOBOP. […] Sulfotransferase activity coupled with deiodinase type I activity caused an increased proportion of T4 to be converted to rT3 rather than T3.
The expression of several genes examined in the TCPOBOP study was also examined. Of the sulfotransferase genes, SULT-X1, N-SULT, SULT 1E1, SULT 1B1 and aryl sulfotransferase were examined.

[4] = test system: mouse liver genes differentially expressed in response to CAR activation; test: Affymetrix GeneChip analysis of mouse liver genes differentially expressed after TCPOBOP treatment; type: in vivo
Procedure: A global analysis of mouse liver genes differentially expressed in response to CAR activation was performed. Changes in mRNA steady state levels were assessed using AFFYMETRIX® chip technology. AFFYMETRIX® GeneChip murine genome assays (Mu11k set), representing greater than 13,000 full-length genes and EST clusters, were used. The primary sequence sources for this set were combined Unigene and TIGR databases. […] TCPOBOP is a potent and selective activator of mouse CAR and a useful chemical tool for in vivo differential gene expression studies.
as §1

[5] = mice, 1 mg/kg i.p., two injections, liver, 28 hours, Affymetrix chip data

For `Clc1cnc(Oc2ccc(Oc3ncc(Cl)cc3Cl)cc2)c(Cl)c1` [TCPOBOP, 1,4-bis-[2,-(3,5-dichloropyridyloxy)] benzene], the “expression of the basolateral transporter mrp3” value [1] was “increased the expression”, the “GST mu1-1 increase” value ([1]; RTQ-PCR) was 2.7 fold and the “GST mu5-5 increase” value ([1]; RTQ-PCR) was 4.7 fold. For the same compound, the “GST theta 1-1 increase” value ([1]; RTQ-PCR) was 2.7 fold, the GST-Y increase ([1]; RTQ-PCR) was 7.5 fold and the SULT-X2 increase ([1]; RTQ-PCR) was 30 fold. The “UDP-glucuronysyl transferase 1A1 increase” value ([1]; RTQ-PCR) was 1.6 fold, the N-SULT increase [2] was 11.5 fold and the SULT-X1 increase [2] was 10.0 fold. The “circulating levels of T4” value (T4) was “decreased circulating levels of T4”, the “glucuronidation of T4” value (T4) was “increase in glucuronidation of T4” and the “SULT-1B1 mRNA induction” value [3] was “not induced”. For the same compound, the “SULT-1E1 mRNA induction” value [3] was “not induced”, the “aryl sulfotransferase mRNA induction” value [3] was “not induced” and the “number of genes (of more than 13,000) displaying a 2-fold or greater change in expression” value ([4]; mice, 1 mg/kg i.p., two injections at 24 hour intervals, liver, total treatment time 28 hours) was 264 genes. For the same compound, the “CYP2B10 mRNA upregulation in expression” value [4, 5] was 40 fold, the “CYP3A1 mRNA upregulation in expression” value [4, 5] was 20 fold and the “decrease in the gene encoding the Na+/K+ transporting ATPase” value [4, 5] was “greater than 2 fold”. The “activation of the CAR nuclear receptor” value ([4]; mouse liver, in vivo differential gene expression study) was “Selective and potent activation”.
